The test deals with T1, human mGluR5d (Homo sapiens, UniProt P41594).
T1 construct: expressed in transfected cells
As to the kind of experiment: FLIPR analysis of [Ca2+]i mobilization (Group I receptor antagonist activity). The class given is cell-based. The conditions noted are these: cells expressing human mGluR5d; antagonist block of agonist challenge. An excerpt: The pharmacological properties of the compounds of the invention can be analyzed using standard assays for functional activity. Examples of glutamate receptor assays are well known in the art as described in for example Aramori et al., Neuron 8:757 (1992), Tanabe et al., Neuron 8:169 (1992), Miller et al., J. Neuroscience 15: 6103 (1995), Balazs, et al., J. Neurochemistry 69:151 (1997). The methodology described in these publications is incorporated herein by reference. Conveniently, the compounds of the invention can be studied by means of an assay that measures the mobilization of intracellular calcium, [Ca^2+]i in cells expressing mGluR5. […]
FLIPR experiments were done using a laser setting of 0.800 W and a 0.4 second CCD camera shutter speed. […] After each addition of the compound, the fluorescence signal was sampled 50 times at 1 second intervals followed by 3 samples at 5 second intervals. Responses were measured as the peak height of the response within the sample period. […]
FLIPR experiments were done using a laser setting of 0.800 W and a 0.4 second CCD camera shutter speed with excitation and emission wavelengths of 488 nm and 562 nm, respectively. […] After each addition the fluorescence signal was sampled 50 times at 1 second intervals followed by 3 samples at 5 second intervals. Responses were measured as the peak height of the response within the sample period. […]

T1 sequence (P41594 21-942 isoform P41594-3 limits assumed): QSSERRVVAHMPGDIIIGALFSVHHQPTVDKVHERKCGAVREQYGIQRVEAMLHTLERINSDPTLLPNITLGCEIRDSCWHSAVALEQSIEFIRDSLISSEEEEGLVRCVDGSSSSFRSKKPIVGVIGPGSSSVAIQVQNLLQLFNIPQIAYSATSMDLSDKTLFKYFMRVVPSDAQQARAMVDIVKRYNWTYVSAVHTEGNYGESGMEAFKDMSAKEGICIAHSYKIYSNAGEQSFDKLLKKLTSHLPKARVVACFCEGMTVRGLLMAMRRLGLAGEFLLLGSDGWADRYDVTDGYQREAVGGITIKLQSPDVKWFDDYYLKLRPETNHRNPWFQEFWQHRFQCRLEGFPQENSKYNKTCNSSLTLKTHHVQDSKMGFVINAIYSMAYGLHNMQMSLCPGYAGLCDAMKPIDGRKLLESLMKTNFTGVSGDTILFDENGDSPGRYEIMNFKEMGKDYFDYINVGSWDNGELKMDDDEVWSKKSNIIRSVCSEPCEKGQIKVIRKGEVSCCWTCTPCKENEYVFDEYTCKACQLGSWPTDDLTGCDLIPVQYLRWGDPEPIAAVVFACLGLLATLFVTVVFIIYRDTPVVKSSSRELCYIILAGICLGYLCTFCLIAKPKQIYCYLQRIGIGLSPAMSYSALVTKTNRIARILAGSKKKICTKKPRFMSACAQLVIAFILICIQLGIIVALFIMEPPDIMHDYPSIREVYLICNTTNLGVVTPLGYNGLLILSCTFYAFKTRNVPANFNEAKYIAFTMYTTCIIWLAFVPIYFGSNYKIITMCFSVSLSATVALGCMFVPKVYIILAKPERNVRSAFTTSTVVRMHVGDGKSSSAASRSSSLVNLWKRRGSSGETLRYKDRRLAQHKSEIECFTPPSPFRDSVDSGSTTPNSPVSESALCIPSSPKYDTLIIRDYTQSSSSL

A word on the IC50: it is the concentration needed to halve the response being measured. High values mean weaker potency, low ones greater potency. On to `Clc1cccc(-n2cc(CSc3nnc(-c4ccncc4)n3C3CC3)nn2)c1` [4-{5-[1-(3-Chloro-phenyl)-1H-[1,2,3]triazol-4-ylmethylsulfanyl]-4-cyclopropyl-4H-[1,2,4]triazol-3-yl}-pyridine], for which the IC50 stood at 265 nM.
Under `CC(Oc1nnc(-c2ccncc2)n1C)c1cnn(-c2cccc(Cl)c2)n1` (centres unmarked) [4-(5-{1-[2-(3-chlorophenyl)-2H-1,2,3-triazol-4-yl]ethoxy}-4-methyl-4H-1,2,4-triazol-3-yl)pyridine] stands 27 nM.
